According to paper PMC10687260, “1,3-Diphenylureido hydroxamate as a promising scaffold for generation of potent antimalarial histone deacetylase inhibitors” (Scientific Reports, 2023):

How the values were obtained:
P. falciparum 3D7 = assay: Antiplasmodial SYBR Green I proliferation assay, P. falciparum 3D7; format: cell-based, Plasmodium falciparum; conditions: Plasmodium falciparum, 3D7, 96 h, 96 h; values in brackets 95% confidence intervals; read-out: IC50 Pf3D7
How it was run: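 SYBR Green I DNA-content proliferation assay on P. falciparum 3D7 and Dd2 in human O+ erythrocytes. Fluorescence after 1 h lysis with 0.02% SYBR Green I, scaled 0–100% against untreated parasites; curves by non-linear regression on means of three independent triplicate experiments.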

HDAC8 = target: T1, HDAC8 (Homo sapiens, UniProt Q9BY41); assay: In vitro HDAC enzymatic assay, HDAC8; format: biochemical; conditions: mean ± SD
T1 construct: made in house
T1 sequence (Q9BY41 1-377): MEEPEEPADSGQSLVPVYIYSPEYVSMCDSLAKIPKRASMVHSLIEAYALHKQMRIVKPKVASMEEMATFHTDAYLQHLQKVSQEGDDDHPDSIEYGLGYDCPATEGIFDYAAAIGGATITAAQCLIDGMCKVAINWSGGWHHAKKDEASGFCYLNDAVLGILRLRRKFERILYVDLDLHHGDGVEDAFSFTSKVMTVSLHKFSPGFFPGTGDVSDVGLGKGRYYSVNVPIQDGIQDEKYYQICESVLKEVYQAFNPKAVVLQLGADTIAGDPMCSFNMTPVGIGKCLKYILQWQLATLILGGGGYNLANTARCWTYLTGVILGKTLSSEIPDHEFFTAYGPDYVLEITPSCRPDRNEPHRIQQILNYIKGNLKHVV
Description: In vitro HDAC enzymatic assays. Recombinant human HDAC1 and HDAC6 were purchased from ENZO Life Sciences AG (Lausen, CH) whereas HDAC8 was produced as described before. In vitro testing of the inhibitors in an enzymatic assay was carried out as described in previous publications[32],[33]. For HDAC1 a fluorogenic peptide derived from p53 (Ac-RHKK(Acetyl)-AMC) was used. For HDAC6, the substrate (Abz-SRGGK(thio-TFA)FFRR-NH2) was used as described before.

HepG2 cells = assay: Cytotoxicity in human HepG2 cells (WST-1); format: cell-based; conditions: Homo sapiens, HepG2; 48 h, WST-1; read-out: IC50 HepG2
How it was run: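 HepG2 cells (10^4/well, seeded overnight) were exposed to two-fold serial compound dilutions in fresh medium, then given WST-1 for 4 h. Formazan absorbance at 450 nm, with 630 nm background, was scaled 0–100% against untreated and DMSO controls.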

CYP450 2D6 = target: T2, CYP450 2D6 (Homo sapiens, UniProt P10635); assay: CYP450 inhibition in human liver microsomes, 2D6; format: in vitro ADME; conditions: 10 µM
T2 construct: 10 μM compound was incubated with human liver microsomes and selective marker substrates; from tissue; host or cells: human liver microsomes
T2 sequence (P10635 whole entry): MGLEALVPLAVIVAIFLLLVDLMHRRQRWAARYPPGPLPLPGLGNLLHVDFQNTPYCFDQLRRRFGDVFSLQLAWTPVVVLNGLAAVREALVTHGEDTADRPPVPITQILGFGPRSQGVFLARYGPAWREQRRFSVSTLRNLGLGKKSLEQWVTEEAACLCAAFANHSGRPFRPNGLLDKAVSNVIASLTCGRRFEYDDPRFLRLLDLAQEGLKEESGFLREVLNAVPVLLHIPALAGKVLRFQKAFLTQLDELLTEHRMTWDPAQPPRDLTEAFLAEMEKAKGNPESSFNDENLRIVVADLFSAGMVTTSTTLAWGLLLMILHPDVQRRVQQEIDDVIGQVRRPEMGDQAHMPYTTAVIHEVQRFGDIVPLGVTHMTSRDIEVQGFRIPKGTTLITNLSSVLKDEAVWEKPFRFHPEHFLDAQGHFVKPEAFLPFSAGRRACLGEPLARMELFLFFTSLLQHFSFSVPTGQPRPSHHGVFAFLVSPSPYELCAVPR

SMILES: COc1ccc(NC(=O)Nc2ccc(/C=C/C(=O)NO)cc2)cc1 [Compound 6c, (E)-N-hydroxi-3-(4-(3-(4-methoxyphenyl)ureido)phenyl)acrylamide]
- IC50 (P. falciparum 3D7): 1030 nM
- IC50 (HDAC8): 63.7 ± 4.2 nM
- melting point: 210 °C (dec.)
- IC50 (HepG2 cells): 13300 nM
- CYP450% inhibition @ 10 µM 2D6 (CYP450 2D6): *^b (Inhibition < 10%)

SMILES: COc1ccc(NC(=O)Nc2ccc(CCC(=O)NO)cc2)cc1 [Compound 7c, N-hydroxy-3-(4-(3-(4-methoxyphenyl)ureido)phenyl)propanamide]
- IC50 (P. falciparum 3D7): 5820 nM
- IC50 (HDAC8): 362 ± 22.7 nM
- melting point: 202 to 204 °C
- IC50 (HepG2 cells): > 50000 nM
- CYP450% inhibition @ 10 µM 2D6 (CYP450 2D6): * (Inhibition < 10%)

SMILES: O=C(Nc1ccccc1)Nc1ccc(C(=O)NO)cc1 [Compound 8a, N-hydroxy-4-(3-phenylureido)bezamide]
- IC50 (P. falciparum 3D7): 560 nM
- IC50 (HDAC8): 93.5 ± 5.3 nM
- melting point: 304 °C (dec.)
- IC50 (HepG2 cells): 56000 nM
- CYP450% inhibition @ 10 µM 2D6 (CYP450 2D6): * (Inhibition < 10%)

SMILES: O=C(Nc1ccc(Cl)cc1)Nc1ccc(C(=O)NO)cc1 [Compound 8b, 4-(3-(4-chlorophenyl)ureido)-N-hydroxybenzamide]
- IC50 (P. falciparum 3D7): 1310 nM
- IC50 (HDAC8): 85.1 ± 9.6 nM
- melting point: 357 °C (dec.)
- IC50 (HepG2 cells): > 200000 nM
- CYP450% inhibition @ 10 µM 2D6 (CYP450 2D6): * (Inhibition < 10%)

SMILES: COc1ccc(NC(=O)Nc2ccc(C(=O)NO)cc2)cc1 [Compound 8c, N-hydroxy-4-(3–4(-methoxyphenyl)ureido)benzamide]
- IC50 (P. falciparum 3D7): 740 nM
- IC50 (HDAC8): 136 ± 8.2 nM
- IC50 (HepG2 cells): > 200000 nM
- CYP450% inhibition @ 10 µM 2D6 (CYP450 2D6): * (Inhibition < 10%)

SMILES: O=C(Nc1ccc(C(=O)NO)cc1)Nc1ccc([N+](=O)[O-])cc1 [Compound 8d, N-hydroxy-4-(3-(4-nitrophenyl)ureido)benzamide]
- IC50 (P. falciparum 3D7): 550 nM
- IC50 (HDAC8): 68.1 ± 6.8 nM
- melting point: 312 °C (dec.)
- IC50 (HepG2 cells): 54000 nM
- CYP450% inhibition @ 10 µM 2D6 (CYP450 2D6): * (Inhibition < 10%)
